# Read-outs that look alike come from different tables or passages of the source.
# Legend:
# σ1 receptors = target: T1, σ1 receptors (Rattus norvegicus, UniProt Q9R0C9); assay: ED50 for pre-blocking of ^18F-FTC146 uptake in rat whole brain (PET); assay type: in vivo
# T1 construct: from tissue; host or cells: brain of living male rats (PET imaging)
# Experimental: (§1) For radioligand injection, a polyethylene catheter (PE 10) was inserted into the penile vein of a male rat and then secured with tissue adhesive and tape. For dynamic scanning, the rats were secured with tape in the scanner and kept under 1.5% isoflurane anesthesia via a nose cone. Body temperature was monitored with a rectal probe. All PET scans were performed on a microPET Focus 220 scanner (Siemens Medical Solutions) (7,8). Data were acquired in listmode and reconstructed with Fourier rebinning + 2D filtered backprojection. A transmission scan was acquired before radioligand injection for attenuation correction. Dynamic scanning began at the time of a one-minute intravenous bolus injection of the radioligand under study (55 ± 19 MBq; volume 0.2 to 1.0 mL). The injected mass dose was 3 ± 1 nmol/kg. Challenge agents were administered intravenously 10 minutes before the radioligand for pre-blocking studies or 10 minutes after the radioligand for displacement studies. Tomographic images were analyzed with pixel-wise modeling computer software (PMOD 2.6; PMOD Group). Regions-of-interest in the brain were delineated, and time-activity curves calculated as SUV versus time.
# Pre-blocking and displacement experiments were performed to assess radioligand target engagement and radioligand selectivity in vivo. Normally 4 doses of 0.01 mg/kg, 0.05 mg/kg, 0.25 mg/kg, and 1.25 mg/kg were used for preblocking experiments, and only 2 doses of 0.25 mg/kg and 1.25 mg/kg were used for displacement experiments. […] […] […] […] Where data permitted, the dose-response curves were fitted with GraphPad Prism software (version 8.1.1; GraphPad) to estimate the ED50 values. A dummy value of 100 pmol per kg body weight was used for zero concentration of the challenge agent in the construction of these dose-response curves. Numerical data are expressed as mean ± S.D. for n>2, or as mean and range for n = 2.
# σ1 receptor = conditions: cited from earlier work
# σ2 receptor = conditions: cited from earlier work
# GluN2B receptors [1] = target: T2, GluN2B receptors (Rattus norvegicus, UniProt P35439+Q00960); assay: ED50 for pre-blocking of GluN2B radioligand uptake in rat whole brain (PET); assay type: in vivo; conditions: for effect of pre-administration on whole rat brain radioactivity uptake of GluN2B radioligands: ^11C-NR2B-Me enantiomers (also ^11C-(S)-NR2B-SMe); for ED50 in rat whole brain in vivo ^11C-(+)-NR2B-Me: radioligand ^11C-(+)-NR2B-Me; for ED50 in rat whole brain in vivo ^11C-(+)-NR2B-Me / ED50 in rat whole brain in vivo ^11C-(−)-NR2B-Me: AUC 20-90 min; for ED50 in rat whole brain in vivo ^11C-(−)-NR2B-Me: radioligand ^11C-(−)-NR2B-Me
# T2 construct: from tissue; host or cells: brain of living male rats (PET imaging)
# T2 sequence (Q00960 27-1482, other chains not shown): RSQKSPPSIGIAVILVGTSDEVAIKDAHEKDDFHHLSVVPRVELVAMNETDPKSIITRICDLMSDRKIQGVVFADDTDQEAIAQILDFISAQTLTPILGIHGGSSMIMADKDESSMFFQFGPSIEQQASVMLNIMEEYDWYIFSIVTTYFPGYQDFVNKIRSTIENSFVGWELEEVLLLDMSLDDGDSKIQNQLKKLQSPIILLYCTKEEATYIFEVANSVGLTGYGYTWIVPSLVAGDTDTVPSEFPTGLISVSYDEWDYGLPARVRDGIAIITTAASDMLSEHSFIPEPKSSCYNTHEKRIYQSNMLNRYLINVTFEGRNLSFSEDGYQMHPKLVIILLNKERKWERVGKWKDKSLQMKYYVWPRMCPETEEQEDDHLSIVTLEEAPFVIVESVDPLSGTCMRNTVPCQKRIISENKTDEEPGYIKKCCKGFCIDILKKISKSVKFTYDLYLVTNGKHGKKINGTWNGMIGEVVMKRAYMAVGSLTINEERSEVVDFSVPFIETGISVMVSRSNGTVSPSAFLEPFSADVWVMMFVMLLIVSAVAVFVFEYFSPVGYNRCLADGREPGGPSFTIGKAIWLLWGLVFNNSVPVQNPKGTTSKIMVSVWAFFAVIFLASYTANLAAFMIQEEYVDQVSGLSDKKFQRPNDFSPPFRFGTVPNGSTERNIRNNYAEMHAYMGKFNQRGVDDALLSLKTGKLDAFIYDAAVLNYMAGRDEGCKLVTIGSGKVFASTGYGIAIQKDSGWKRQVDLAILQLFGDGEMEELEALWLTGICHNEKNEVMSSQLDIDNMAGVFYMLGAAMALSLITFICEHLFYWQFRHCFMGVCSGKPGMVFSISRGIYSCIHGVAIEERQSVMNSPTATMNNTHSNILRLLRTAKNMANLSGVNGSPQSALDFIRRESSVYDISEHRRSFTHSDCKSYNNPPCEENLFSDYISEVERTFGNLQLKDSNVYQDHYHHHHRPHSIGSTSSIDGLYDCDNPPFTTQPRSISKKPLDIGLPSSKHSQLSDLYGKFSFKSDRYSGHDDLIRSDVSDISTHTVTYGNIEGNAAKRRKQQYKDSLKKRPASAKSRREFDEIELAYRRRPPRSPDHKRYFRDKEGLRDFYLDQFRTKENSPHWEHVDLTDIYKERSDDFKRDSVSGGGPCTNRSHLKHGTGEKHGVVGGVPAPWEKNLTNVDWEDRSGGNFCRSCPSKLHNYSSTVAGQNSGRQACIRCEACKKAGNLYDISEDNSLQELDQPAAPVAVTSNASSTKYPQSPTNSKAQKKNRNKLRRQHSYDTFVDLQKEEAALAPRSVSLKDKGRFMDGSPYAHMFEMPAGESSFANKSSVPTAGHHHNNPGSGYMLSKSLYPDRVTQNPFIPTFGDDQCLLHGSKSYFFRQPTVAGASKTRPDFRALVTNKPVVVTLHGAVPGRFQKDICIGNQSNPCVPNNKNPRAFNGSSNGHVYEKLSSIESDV
# Experimental: as §1, with “For dynamic scanning, the rats were secured with tape in the scanner and kept under 1.5% isoflurane anesthesia via a nose cone.” left out
# (§2) Pre-blocking and displacement experiments were performed to assess radioligand target engagement and radioligand selectivity in vivo. […] Areas-under the curve (AUCs) from time-activity curves between 20 and 90 minutes were calculated for each radioligand. AUCs obtained from the same production of radioligand were scaled to the value (or mean value) for the baseline experiment to give relative values (relative AUC20–90 min). […] Where data permitted, the dose-response curves were fitted with GraphPad Prism software (version 8.1.1; GraphPad) to estimate the ED50 values. A dummy value of 100 pmol per kg body weight was used for zero concentration of the challenge agent in the construction of these dose-response curves. Numerical data are expressed as mean ± S.D. for n>2, or as mean and range for n = 2.
# [2] = rat, PET, sixty minutes after injection; cited from earlier work
# guinea pig σ1 receptor = guinea pig σ1 receptor (Cavia porcellus, UniProt Q60492); assay: PDSP σ1 receptor binding
# Sequence of guinea pig σ1 receptor (Q60492 whole entry): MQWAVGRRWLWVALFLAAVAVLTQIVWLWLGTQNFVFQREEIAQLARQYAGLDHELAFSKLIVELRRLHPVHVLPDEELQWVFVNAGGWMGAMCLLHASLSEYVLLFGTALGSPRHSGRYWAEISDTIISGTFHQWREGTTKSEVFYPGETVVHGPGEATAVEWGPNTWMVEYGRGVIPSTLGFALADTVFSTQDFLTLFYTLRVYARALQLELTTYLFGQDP
# Text: (§3) NR2B-Me was submitted to the PDSP for assessment of binding affinity against a wide range of other receptors and binding sites. A full listing of these receptors and binding sites is given in the Supplemental Results. Detailed assay protocols are available at the PDSP website (http://pdsp.cwru.edu).
# (§4) Assessment of Binding Affinity against a Wide Range of Other Receptors and Binding Sites. NR2B-Me was submitted to the National Institute of Mental Health Psychoactive Drug Screening program (NIMH-PDSP) to assess binding affinity against a wide range of other receptors and binding sites (5-HT1A, 1B, 1D, 1E, 2A, 2A agonist, 2A antagonist, 2B, 2B agonist, 2B antagonist, 2C, 2C agonist, 2C antagonist, 3, 5A, 6, 7; α2; α2β2, α2β2, α3β2, α3β4, α4β2, α4β4, α7; α1A, 1A agonist, 1B, 1B agonist, 1B antagonist, 2A-2C; AMPA*; β1-3; BZPa1-3, a5, a6, rat brain site; Ca^2+-Channel; CB1-2, D1, 2, 2 agonist, 2 antagonist, 3-5; DAT; DOR; EP1-4; GABAA,B; GPR40,41,43; H1-4; HERG; IMIDAZOLINE 1; KA-R*; KOR, KORagonist, antagonist; M1, 1 agonist, 1 antagonist, 2, 3, 3 agonist, 3 antagonist, 4, 5, 5 agonist, 5 antagonist; MDR 1; mGluR1A,2,4,5,5-cloned,5-rat brain,6,8; MOR; Na^+-Channel; NET; NK1, 1 antagonist, 2, 2 antagonist, 3, 3 antagonist; NMDA; NMDA/MK801; NT-1; OXYTOCINagonist, antagonist; PAR1agonist, antagonist; PCP; PKCA, B, D, E, G; PTHR2, Purinergicagonist, antagonist; SET; σ1,2; V1, 1 agonist, 1 antagonist, 2, 2 agonist, 2 antagonist, 3, 3 agonist, 3 antagonist, VMAT1, 2).
# PC12 cell σ2 receptors = target: T3, PC12 cell σ2 receptors (Rattus norvegicus, UniProt Q5U3Y7); assay: PDSP σ2 receptor binding
# T3 construct: endogenous in cells; host or cells: PC12 cells
# T3 sequence (Q5U3Y7 1-176): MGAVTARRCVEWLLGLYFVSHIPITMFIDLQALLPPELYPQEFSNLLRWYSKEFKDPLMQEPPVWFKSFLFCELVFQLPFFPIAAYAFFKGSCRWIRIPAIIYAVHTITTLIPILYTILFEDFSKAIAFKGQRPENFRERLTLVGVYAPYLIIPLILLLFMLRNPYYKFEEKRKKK
# Text: as §3, §4
# GluN2B receptors [3] = target: T2, GluN2B receptors; assay: PET displacement / pre-blocking of ^11C-NR2B-Me radioligands with Ro-25-6981, Lassen plots; assay type: in vivo
# Experimental: as §1, with “For dynamic scanning, the rats were secured with tape in the scanner and kept under 1.5% isoflurane anesthesia via a nose cone.” left out
# as §2
# GluN2B = target: T4, GluN2B (Homo sapiens, UniProt Q05586+Q13224); conditions: cited from earlier work
# T4 construct: expressed in transfected cells; host or cells: transiently transfected mouse fibroblast cells (membrane homogenate)
# T4 sequence (Q13224 27-1484, species assumed, other chains not shown): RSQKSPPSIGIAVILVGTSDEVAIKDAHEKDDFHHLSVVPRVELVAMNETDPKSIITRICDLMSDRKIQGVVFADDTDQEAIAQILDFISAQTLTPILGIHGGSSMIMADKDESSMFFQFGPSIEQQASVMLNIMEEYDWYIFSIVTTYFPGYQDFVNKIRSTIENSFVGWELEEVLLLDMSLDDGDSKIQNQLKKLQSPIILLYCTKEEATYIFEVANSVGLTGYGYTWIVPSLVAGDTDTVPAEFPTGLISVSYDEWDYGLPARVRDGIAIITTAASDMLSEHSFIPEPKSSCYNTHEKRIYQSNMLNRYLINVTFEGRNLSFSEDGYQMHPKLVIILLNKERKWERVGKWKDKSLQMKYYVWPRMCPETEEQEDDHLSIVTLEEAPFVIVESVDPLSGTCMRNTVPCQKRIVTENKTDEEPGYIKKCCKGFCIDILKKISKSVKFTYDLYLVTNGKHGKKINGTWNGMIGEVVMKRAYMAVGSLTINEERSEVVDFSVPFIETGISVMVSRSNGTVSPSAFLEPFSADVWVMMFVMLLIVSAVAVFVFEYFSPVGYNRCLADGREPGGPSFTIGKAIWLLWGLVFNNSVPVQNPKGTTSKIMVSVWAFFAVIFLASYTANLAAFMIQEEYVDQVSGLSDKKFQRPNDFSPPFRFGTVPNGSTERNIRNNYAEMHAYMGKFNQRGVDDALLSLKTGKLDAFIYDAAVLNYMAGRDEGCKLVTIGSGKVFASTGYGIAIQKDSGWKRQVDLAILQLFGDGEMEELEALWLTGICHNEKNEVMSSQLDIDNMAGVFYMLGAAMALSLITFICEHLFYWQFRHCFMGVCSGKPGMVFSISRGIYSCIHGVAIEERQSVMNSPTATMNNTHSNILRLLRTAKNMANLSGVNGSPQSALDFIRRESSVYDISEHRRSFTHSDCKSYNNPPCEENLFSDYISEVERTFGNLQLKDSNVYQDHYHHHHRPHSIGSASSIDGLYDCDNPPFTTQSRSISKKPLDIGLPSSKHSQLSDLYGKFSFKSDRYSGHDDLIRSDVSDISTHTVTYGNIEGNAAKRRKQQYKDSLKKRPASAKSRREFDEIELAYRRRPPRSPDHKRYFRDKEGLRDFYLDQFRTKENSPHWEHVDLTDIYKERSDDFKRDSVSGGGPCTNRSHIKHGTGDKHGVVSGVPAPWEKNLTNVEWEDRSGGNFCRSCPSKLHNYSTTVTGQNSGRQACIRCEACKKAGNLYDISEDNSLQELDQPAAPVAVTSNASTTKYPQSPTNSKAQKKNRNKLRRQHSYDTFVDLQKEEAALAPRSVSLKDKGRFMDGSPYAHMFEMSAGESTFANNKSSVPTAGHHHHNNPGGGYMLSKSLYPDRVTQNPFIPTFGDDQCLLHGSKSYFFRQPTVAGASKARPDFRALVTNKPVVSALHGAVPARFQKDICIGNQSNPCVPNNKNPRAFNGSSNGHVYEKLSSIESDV
# GluN2B receptors [4] = target: T2, GluN2B receptors; parameters: method as in PMID 31924728; conditions: pre-blocking, radioligand ^11C-(S)-NR2B-SMe; cited from earlier work
# T1 sequence (Q9R0C9 whole entry): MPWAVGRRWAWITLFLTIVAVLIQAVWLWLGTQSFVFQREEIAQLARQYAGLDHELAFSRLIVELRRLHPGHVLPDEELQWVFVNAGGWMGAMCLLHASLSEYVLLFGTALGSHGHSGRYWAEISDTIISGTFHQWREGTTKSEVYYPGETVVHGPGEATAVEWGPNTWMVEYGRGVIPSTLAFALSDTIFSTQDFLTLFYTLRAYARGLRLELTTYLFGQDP
smiles,measurement,setting,value
COc1ccc2c(c1)CCN(CCCCc1ccc(SC)cc1)C[C@H]2O [(S)-NR2B-SMe],ED50 versus ^18F-FTC146,σ1 receptors; rat whole brain,exceeded 1 µmol per kg body weight
same,Ki,σ1 receptor; read-out: σ1 Ki,24 nM
same,Ki,σ2 receptor; read-out: σ2 Ki,140 nM
OC12C3C4CC5C6C4C1C6C(C53)N2CCc1cccc(F)c1 (stereo not shown) [TC1],effect of pre-administration on whole rat brain radioactivity uptake of GluN2B radioligands,GluN2B receptors [1],strong pre-blocking effects
same,ED50 in rat whole brain in vivo ^11C-(+)-NR2B-Me,GluN2B receptors [1]; pre-blocking,64 nmol/kg
same,ED50 in rat whole brain in vivo ^11C-(−)-NR2B-Me,GluN2B receptors [1]; pre-blocking,48 nmol/kg
same,Ki,"σ1 receptor; reference radioligand ^3H-pentazocine, ref 40, read-out: Ki for σ1",10 nM
same,Ki,"σ2 receptor; reference radioligand ^3H-DTG, ref 40, read-out: Ki for σ2",370 nM
[11CH3]Oc1ccc2c(c1)CCN(CCCCc1ccccc1)C[C@@H]2O [(R)-^11C-Me-NB1],radioactivity concentration in cerebellum as % of that in cortex,[2],79%
same,radioactivity concentration in cerebellum as % of that in hippocampus,[2],74%
same,radioactivity concentration in cerebellum as % of that in striatum,[2],75%
same,radioactivity concentration in cerebellum as % of that in thalamus,[2],83%
"COc1ccc2c(c1)CCN(CCCCc1ccc(C)cc1)CC2O (single isomer, unassigned; (+)) [(+)-NR2B-Me]",Ki,guinea pig σ1 receptor,91 nM
same,Ki,PC12 cell σ2 receptors,100 nM
O=C(OCCN1CCOCC1)C1(c2ccccc2)CCCCC1 [PRE-084],ED50 in rat whole brain in vivo ^11C-(−)-NR2B-Me,GluN2B receptors [1]; pre-blocking,> 1000 nmol/kg
COC(=O)C1(c2ccc(C)cc2)CC1CN1CCC(O)(c2ccccc2)CC1 (racemic) [( ±)-PPCC],ED50 in rat whole brain in vivo ^11C-(−)-NR2B-Me,GluN2B receptors [1]; pre-blocking,> 1000 nmol/kg
same,Ki,"σ1 receptor; reference radioligand ^3H-pentazocine, ref 45, read-out: Ki for σ1",1.5 nM
same,Ki,"σ2 receptor; reference radioligand ^3H-DTG, ref 45, read-out: Ki for σ2",50.8 nM
COc1ccc2c(c1)CCN(CCCCc1ccc([11CH3])cc1)CC2O (stereo not drawn) [^11C-(−)-NR2B-Me],"BPND (SUVBL/SUVND−1), whole rat brain",GluN2B receptors [3]; Lassen (SUV) plots,5
same,non-displaceable binding (X-axis intercept of Lassen plots),"GluN2B receptors [3]; rat brain, pre-blocking with 0.25 mg/kg Ro-25-6981, on average",about 0.42 SUV
same,displacement from peak value at 90 min,"GluN2B receptors [3]; rat whole brain, Ro-25-6981 0.25 mg/kg i.v. 10 min after radioligand, n = 1",63%
CN(C)CCN(C)CCc1ccc(Cl)c(Cl)c1 [BD1047],effect of pre-administration on whole rat brain radioactivity uptake of GluN2B radioligands,GluN2B receptors [1],minimal effects
same,ED50 in rat whole brain in vivo ^11C-(+)-NR2B-Me,GluN2B receptors [1]; pre-blocking,555 nmol/kg
same,ED50 in rat whole brain in vivo ^11C-(−)-NR2B-Me,GluN2B receptors [1]; pre-blocking,900 nmol/kg
same,ED50 in rat whole brain in vivo ^11C-(−)-NR2B-SMe,"GluN2B receptors [1]; pre-blocking, radioligand as printed in Table 3 head",> 1000 nmol/kg
same,ED50 in rat whole brain in vivo ^18F-FTC146,"σ1 receptors; radioligand ^18F-FTC146, AUC 20-120 min",169 nmol/kg
same,Ki,"σ1 receptor; reference radioligand ^3H-pentazocine, ref 39, read-out: Ki for σ1",0.9 nM
same,Ki,"σ2 receptor; reference radioligand ^3H-DTG, ref 39, read-out: Ki for σ2",47 nM
"Cc1ccc(CC2(O)CCN(CCOc3ccc(O)cc3)CC2)cc1 [CO101,244]",ED50,"GluN2B receptors [1]; rat, read-out: ED50 in rat whole brain in vivo ^11C-(+)-NR2B-Me",0.041 µmol/kg
same,Ki,GluN2B,43 nM
same,ED50 in rat whole brain in vivo ^11C-(S)-NR2B-SMe,GluN2B receptors [4],74 nmol/kg

# From PMC10076467 (EJNMMI Research, 2023)
